Test results reported in patent US8288375B2, “Fungicidal bicyclic pyrazoles” (E.I. du Pont de Nemours and Company, priority 2007, dated 2012).
Marks after values point to notes of the source that are not given here.

How the values were obtained:
Format in all cases: in vivo
[1] = test system: Colletotrichum orbiculare; assay: Test F: cucumber Colletotrichum anthracnose, test suspension sprayed on cucumber seedlings, disease rating; details: 200 ppm test suspension
Fusarium graminearum = assay: whole plant or invertebrate
Phytophthora infestans = assay: whole plant or invertebrate
Rhizoctonia oryzae = assay: Test I: turf brown patch, test suspension sprayed on creeping bent grass seedlings, disease rating; details: 200 ppm test suspension
Septoria nodorum = assay: Test D: wheat glume blotch, test suspension sprayed on wheat seedlings, disease rating; details: 200 ppm test suspension
[2] = test system: Erysiphe graminis f. sp. tritici; assay: Test A: wheat powdery mildew, test suspension sprayed on wheat seedlings, disease rating; details: 200 ppm test suspension; 100 = 100% disease control, 0 = no control
[3] = test system: Puccinia recondite f sp. tritici; assay: Test B: wheat leaf rust, test suspension sprayed on wheat seedlings, disease rating;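 also: 200 ppm unless marked * meaning 40 ppm or ** meaning 10 ppm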
Plasmopara viticola = assay: Test K: grape downy mildew, grape seedlings inoculated and then sprayed, disease rating; details: 200 ppm test suspension
Pythium aphanidermatum = assay: Test L: bluegrass pythium blight, test suspension sprayed on bluegrass seedlings, disease rating;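 also: 200 ppm unless marked * meaning 40 ppm or ** meaning 10 ppm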
Botrytis cinerea = assay: Test H: tomato Botrytis, test suspension sprayed on tomato seedlings, disease rating; details: 200 ppm test suspension
Alternaria solani = assay: Test G: tomato early blight, test suspension sprayed on seedlings, disease rating; details: 40 ppm test suspension (*);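 also: 200 ppm unless marked * meaning 40 ppm or ** meaning 10 ppm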
Septoria tritici = assay: Test E: wheat leaf blotch, test suspension sprayed on wheat seedlings, disease rating;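 also: 200 ppm unless marked * meaning 40 ppm or ** meaning 10 ppm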

CNc1nccc(-c2c(-c3ccc(F)cc3)nn3c2CCCC3)n1 [compound 13]
Test F disease control rating [1]: 31%
Test C disease control rating (Fusarium graminearum; 200 ppm test suspension): 100%
Test J disease control rating (Phytophthora infestans; 200 ppm test suspension): 97%
Test I disease control rating (Rhizoctonia oryzae): 77%
Test D disease control rating (Septoria nodorum): 97%
Test A disease control rating [2]: 98%
Test B disease control rating ([3]; 200 ppm test suspension): 99%
Test K disease control rating (Plasmopara viticola): 0%
Test L disease control rating (Pythium aphanidermatum; 200 ppm test suspension): 100%
Test H disease control rating (Botrytis cinerea): 29%

CCCC(CO)Nc1nccc(-c2c(-c3ccc(F)cc3)nn3c2CCCC3)n1 (stereo not drawn) [compound 73]
Test F disease control rating [1]: 0%
Test C disease control rating (Fusarium graminearum; 40 ppm test suspension (*)): 0* %
Test J disease control rating (Phytophthora infestans; 40 ppm test suspension (*)): 17* %
Test I disease control rating (Rhizoctonia oryzae): 0%
Test G disease control rating (Alternaria solani): 0* %
Test D disease control rating (Septoria nodorum): 78%
Test A disease control rating [2]: 0%
Test B disease control rating ([3]; 40 ppm test suspension (*)): 85* %
Test L disease control rating (Pythium aphanidermatum; 40 ppm test suspension (*)): 98* %
Test E disease control rating (Septoria tritici; 40 ppm test suspension (*)): 84* %
Test H disease control rating (Botrytis cinerea): 0%

Fc1ccc(-c2nn3c(c2-c2ccnc(NOCC4CCC4)n2)CCCC3)cc1 [compound 75]
Test F disease control rating [1]: 0%
Test C disease control rating (Fusarium graminearum; 40 ppm test suspension (*)): 0* %
Test J disease control rating (Phytophthora infestans; 40 ppm test suspension (*)): 0* %
Test I disease control rating (Rhizoctonia oryzae): 0%
Test G disease control rating (Alternaria solani): 0* %
Test D disease control rating (Septoria nodorum): 0%
Test A disease control rating [2]: 31%
Test B disease control rating ([3]; 40 ppm test suspension (*)): 0* %
Test L disease control rating (Pythium aphanidermatum; 40 ppm test suspension (*)): 0* %
Test E disease control rating (Septoria tritici; 40 ppm test suspension (*)): 92* %
Test H disease control rating (Botrytis cinerea): 0%

CCC(C)Nc1nccc(-c2c(-c3ccc(F)cc3F)nn3c2CCC3)n1 (stereo not drawn) [compound 87]
Test F disease control rating [1]: 0%
Test C disease control rating (Fusarium graminearum; 200 ppm test suspension): 99%
Test J disease control rating (Phytophthora infestans; 200 ppm test suspension): 94%
Test I disease control rating (Rhizoctonia oryzae): 0%
Test D disease control rating (Septoria nodorum): 78%
Test A disease control rating [2]: 0%
Test K disease control rating (Plasmopara viticola): 0%
Test L disease control rating (Pythium aphanidermatum; 200 ppm test suspension): 99%
Test H disease control rating (Botrytis cinerea): 0%

COCC(C)Nc1nccc(-c2c(-c3ccc(OC)cc3)nn3c2CCC3)n1 (stereo not drawn) [compound 86]
Test F disease control rating [1]: 0%
Test C disease control rating (Fusarium graminearum; 200 ppm test suspension): 0%
Test J disease control rating (Phytophthora infestans; 200 ppm test suspension): 94%
Test I disease control rating (Rhizoctonia oryzae): 0%
Test D disease control rating (Septoria nodorum): 51%
Test A disease control rating [2]: 0%
Test K disease control rating (Plasmopara viticola): 0%
Test L disease control rating (Pythium aphanidermatum; 200 ppm test suspension): 99%
Test H disease control rating (Botrytis cinerea): 0%

CC(C)Nc1nccc(-c2c(-c3ccc(F)cc3)nn3c2CCCN3)n1 [Compound 136]
Test F disease control rating [1]: 0%
Test C disease control rating (Fusarium graminearum; 40 ppm test suspension (*)): 77* %
Test J disease control rating (Phytophthora infestans; 40 ppm test suspension (*)): 57* %
Test I disease control rating (Rhizoctonia oryzae): 0%
Test G disease control rating (Alternaria solani): 99* %
Test D disease control rating (Septoria nodorum): 97%
Test A disease control rating [2]: 0%
Test B disease control rating ([3]; 40 ppm test suspension (*)): 92* %
Test L disease control rating (Pythium aphanidermatum; 40 ppm test suspension (*)): 100* %
Test E disease control rating (Septoria tritici; 40 ppm test suspension (*)): 28* %
Test H disease control rating (Botrytis cinerea): 41%

CC(CO)Nc1nccc(-c2c(-c3ccc(F)cc3)nn3c2CCCC3)n1.Cl (stereo not drawn) [compound 72]
Test F disease control rating [1]: 0%
Test C disease control rating (Fusarium graminearum; 40 ppm test suspension (*)): 0* %
Test J disease control rating (Phytophthora infestans; 40 ppm test suspension (*)): 99* %
Test I disease control rating (Rhizoctonia oryzae): 0%
Test G disease control rating (Alternaria solani): 98* %
Test D disease control rating (Septoria nodorum): 82%
Test A disease control rating [2]: 0%
Test B disease control rating ([3]; 40 ppm test suspension (*)): 94* %
Test L disease control rating (Pythium aphanidermatum; 40 ppm test suspension (*)): 100* %
Test E disease control rating (Septoria tritici; 40 ppm test suspension (*)): 47* %
Test H disease control rating (Botrytis cinerea): 77%

CC(=O)N1CCn2nc(-c3ccc(F)cc3)c(-c3ccnc(NC(C)C)n3)c2C1 [Compound 130]
Test F disease control rating [1]: 0%
Test C disease control rating (Fusarium graminearum; 40 ppm test suspension (*)): 0* %
Test J disease control rating (Phytophthora infestans; 40 ppm test suspension (*)): 100* %
Test I disease control rating (Rhizoctonia oryzae): 0%
Test G disease control rating (Alternaria solani): 58* %
Test D disease control rating (Septoria nodorum): 97%
Test A disease control rating [2]: 86%
Test B disease control rating ([3]; 40 ppm test suspension (*)): 92* %
Test L disease control rating (Pythium aphanidermatum; 40 ppm test suspension (*)): 100* %
Test E disease control rating (Septoria tritici; 40 ppm test suspension (*)): 97* %
Test H disease control rating (Botrytis cinerea): 34%

CC(C)Nc1nccc(-c2c(-c3ccc(F)cc3)nn3c2CNCC3)n1.Cl [Compound 133]
Test F disease control rating [1]: 98%
Test C disease control rating (Fusarium graminearum; 40 ppm test suspension (*)): 42* %
Test J disease control rating (Phytophthora infestans; 40 ppm test suspension (*)): 73* %
Test I disease control rating (Rhizoctonia oryzae): 0%
Test G disease control rating (Alternaria solani): 0* %
Test D disease control rating (Septoria nodorum): 0%
Test A disease control rating [2]: 0%
Test B disease control rating ([3]; 40 ppm test suspension (*)): 19* %
Test L disease control rating (Pythium aphanidermatum; 40 ppm test suspension (*)): 99* %
Test E disease control rating (Septoria tritici; 40 ppm test suspension (*)): 0* %
Test H disease control rating (Botrytis cinerea): 0%

CC(CO)Nc1nccc(-c2c(-c3ccc(F)cc3)nn3c2CCCC3)n1 (stereo not drawn) [Compound 5, 2-[[4-[2-(4-fluorophenyl)-4,5,6,7-tetrahydropyrazolo[5,1-a]pyridin-3-yl]-2-pyrimidinyl]amino]-1-propanol]
Test F disease control rating [1]: 99%
Test C disease control rating (Fusarium graminearum; 200 ppm test suspension): 100%
Test J disease control rating (Phytophthora infestans; 200 ppm test suspension): 99%
Test I disease control rating (Rhizoctonia oryzae): 0%
Test G disease control rating (Alternaria solani): 98* %
Test D disease control rating (Septoria nodorum): 97%
Test A disease control rating [2]: 96%
Test B disease control rating ([3]; 200 ppm test suspension): 100%
Test L disease control rating (Pythium aphanidermatum; 200 ppm test suspension): 100%
Test E disease control rating (Septoria tritici; 200 ppm test suspension): 97%
Test H disease control rating (Botrytis cinerea): 99%

COCC(C)Nc1nccc(-c2c(-c3ccc(F)cc3F)nn3c2CCC3)n1 (stereo not drawn) [compound 88]
Test F disease control rating [1]: 0%
Test C disease control rating (Fusarium graminearum; 200 ppm test suspension): 100%
Test J disease control rating (Phytophthora infestans; 200 ppm test suspension): 100%
Test I disease control rating (Rhizoctonia oryzae): 0%
Test D disease control rating (Septoria nodorum): 60%
Test A disease control rating [2]: 0%
Test K disease control rating (Plasmopara viticola): 0%
Test L disease control rating (Pythium aphanidermatum; 200 ppm test suspension): 99%
Test H disease control rating (Botrytis cinerea): 21%

COCC(C)Nc1nccc(-c2c(-c3ccc(C)cc3)nn3c2CCC3)n1 (stereo not drawn) [compound 89]
Test F disease control rating [1]: 0%
Test C disease control rating (Fusarium graminearum; 200 ppm test suspension): 100%
Test J disease control rating (Phytophthora infestans; 200 ppm test suspension): 0%
Test I disease control rating (Rhizoctonia oryzae): 0%
Test D disease control rating (Septoria nodorum): 60%
Test A disease control rating [2]: 21%
Test K disease control rating (Plasmopara viticola): 0%
Test L disease control rating (Pythium aphanidermatum; 200 ppm test suspension): 99%
Test H disease control rating (Botrytis cinerea): 8%

C=CCN1CNCc2c(-c3ccnc(NC4CC4)n3)c(-c3ccc(F)cc3)nn21 [Compound 137]
Test F disease control rating [1]: 0%
Test C disease control rating (Fusarium graminearum; 40 ppm test suspension (*)): 69* %
Test J disease control rating (Phytophthora infestans; 40 ppm test suspension (*)): 53* %
Test I disease control rating (Rhizoctonia oryzae): 0%
Test G disease control rating (Alternaria solani): 99* %
Test D disease control rating (Septoria nodorum): 92%
Test A disease control rating [2]: 86%
Test B disease control rating ([3]; 40 ppm test suspension (*)): 0* %
Test L disease control rating (Pythium aphanidermatum; 40 ppm test suspension (*)): 99* %
Test E disease control rating (Septoria tritici; 40 ppm test suspension (*)): 73* %
Test H disease control rating (Botrytis cinerea): 0%

CN(N)c1nccc(-c2c(-c3ccc(F)cc3)nn3c2CCCC3)n1 [compound 70]
Test F disease control rating [1]: 91%
Test C disease control rating (Fusarium graminearum; 40 ppm test suspension (*)): 0* %
Test J disease control rating (Phytophthora infestans; 40 ppm test suspension (*)): 53* %
Test I disease control rating (Rhizoctonia oryzae): 9%
Test G disease control rating (Alternaria solani): 46* %
Test D disease control rating (Septoria nodorum): 90%
Test A disease control rating [2]: 83%
Test B disease control rating ([3]; 40 ppm test suspension (*)): 0* %
Test L disease control rating (Pythium aphanidermatum; 40 ppm test suspension (*)): 98* %
Test E disease control rating (Septoria tritici; 40 ppm test suspension (*)): 84* %
Test H disease control rating (Botrytis cinerea): 29%

CC(C)C(CO)Nc1nccc(-c2c(-c3ccc(F)cc3)nn3c2CCCC3)n1 (stereo not drawn) [compound 74]
Test F disease control rating [1]: 0%
Test C disease control rating (Fusarium graminearum; 40 ppm test suspension (*)): 10* %
Test J disease control rating (Phytophthora infestans; 40 ppm test suspension (*)): 0* %
Test I disease control rating (Rhizoctonia oryzae): 0%
Test G disease control rating (Alternaria solani): 0* %
Test D disease control rating (Septoria nodorum): 60%
Test A disease control rating [2]: 20%
Test B disease control rating ([3]; 40 ppm test suspension (*)): 91* %
Test L disease control rating (Pythium aphanidermatum; 40 ppm test suspension (*)): 93* %
Test E disease control rating (Septoria tritici; 40 ppm test suspension (*)): 86* %
Test H disease control rating (Botrytis cinerea): 0%
